In paper PMC4893161, “The Dynamic Localization of Cytoplasmic Dynein in Neurons Is Driven by Kinesin-1” (Neuron, 2016):

What was measured:
[1] = system: anterograde transport of dynein-GFP in axons of primary hippocampal neurons; test: Slow axonal transport photobleaching assay (dynein-GFP midpoint displacement); assay type: cell-based, mouse; conditions: for mean velocity of dynein-GFP displacement / mean velocity of dynein-GFP: 3 cultures; for mean velocity of dynein-GFP: 500 ng peptide complexed with Chariot reagent, pre-treated 45–60 min; for mean velocity of dynein-GFP / kymographs with no or retrograde bias: n = 27 (control) and 29 (DIC1a) axons
Experimental: Primary hippocampal neurons from dynein-GFP mice were cultured for 8–10 DIV in 900 μm microfluidic devices in order to image single axons of known polarity. Post bleach motility was imaged for 60 s at 0.5 fps. A line scan was made for every frame of the time series, then movement of the photo-protected dynein-GFP pool was quantified by defining retrograde and anterograde edges at the half-maximal fluorescence value and tracking the displacement of the midpoint (Figure 6B). The peak of fluorescence intensity decreased with time as the dynein-GFP pool shifted in both anterograde and retrograde directions. However, the relative midpoint could be seen moving with a clear bias in the anterograde direction for several seconds (Figure 6C), particularly when overlaid onto the more standard kymograph representation of axonal transport (Figure 6D). […] By fitting a linear regression to each relative midpoint position over time, we observed anterograde velocities ranging from 0.01 to 0.1 μm/s. However, ∼80% of events were in the 0.01 to 0.05 μm/s range or approximately 1–5 mm a day. All net anterograde velocities were consistent with known speeds of slow axonal transport of cytoplasmic dynein in vivo ([Dillman et al., 1996a], [Dillman et al., 1996b]).
First, we tested whether the anterograde transport of dynein was microtubule dependent, using nocodazole (final concentration 30 μM) to depolymerize microtubules. Every viable isolated axon (see Experimental Procedures) within the microgrooves of the chamber was imaged following the bleaching protocol described above. The relative position of the midpoint for each kymograph was calculated (see Figure 7A for examples) and the mean midpoint displacement ± SEM was plotted for all axons (Figure 7B). […] To establish a mean velocity for dynein-GFP, we fitted each midpoint shift with a linear regression.
To directly test our hypothesis that interactions between dynein and kinesin-1 are required for the anterograde transport of dynein in the axon, we designed a peptide to block the interaction between DIC1 and KLC. We chose a 19-amino-acid-long sequence centered on the tryptophan in WD1 of DIC1a. […] Hippocampal neuronal cultures were pre-treated for 45–60 min with either DIC1a or control peptide, complexed with Chariot reagent for delivery across the plasma membrane. […] Consequently, the anterograde transport of dynein-GFP in the axon is critically dependent on the interaction between dynein subunit DIC1a and the KLCs of kinesin-1.
Live cell imaging of hippocampal cultures was performed in Hibernate E low fluorescence medium in a humidified temperature controlled (37°C) live cell chamber, on an Ultraview Vox (PerkinElmer) dual-imaging system mounted on an inverted Nikon Ti microscope with either 100× or 60× apochromat 1.49 NA oil-immersion objectives (Nikon), fully controlled by Volocity software (PerkinElmer). FRAP and slow axonal transport imaging used the spinning-disk confocal with an Ultraview Photokinesis unit for bleaching and a C9100-50 EM-CCD (Hamamatsu) camera. Near-TIRF imaging used the Nikon TIRF system with an EM-CCD C9100-13 camera (Hamamatsu). Image analysis was performed in FIJI ([Schindelin et al., 2012]) with follow up analysis in R (RStudio). Specifics for each experiment are listed in the Supplemental Experimental Procedures. […]
Slow axonal transport imaging and drug treatments
Axons were imaged with a 100X objective (Nikon). Acquisition speed was 1 frame every two seconds.
For Nocodazole and Taxol drug treatments, […] and 200 nM respective final concentrations were added
to each well of the microfluidic chamber in imaging media (Hibernate E Low Fluorescence media) 45-60
minutes prior to imaging, with hydrostatic pressure across the microgrooves of the microfluidic device to
ensure drugs reached the axons within the grooves.
Peptides were supplied by GenScript, and sequences are VCFYLLLQTWVFPYTHDLH and
LVQPLHFLTWDTCYFHYLV for Control and DIC1a-WD1 peptides respectively. […]

EB3 comets in the axon = test: EB3-mCherry comet density in axons; assay type: cell-based, mouse; conditions: taxol 200 nM, 45-60 min pre-treatment, mean; DMSO control 0.12; p = 0.008
Experimental: Figure S5. Related to Figure 7.
The slow anterograde transport of dynein in the axon is not dependent on dynamic microtubules.
(A) Taxol treatment reduces the density of EB3 comets in the axon. Example kymographs (left) and quantification (right) of
EB3-mCherry comet density in DMSO control and taxol treated axons. Pre-treatment with taxol (200 nM final concentration) for
45-60 minutes prior to imaging reduces the density of EB3 comets in the axon from 0.12 to 0.03 comets/µm/min. Heavy line =
mean, box = sem, grey dots = individual axons. Axons were imaged at 1 frame per second for 3 minutes using live cell spinning
disk confocal microscopy. […]
neurons showing relative positions of anterograde and retrograde intercept (blue) and the calculated midpoint displacement […]
spots are the velocities for each measured kymograph with colour indicating the overall direction of the midpoint displacement. […]
Taxol mean velocity 0.020±0.004 µm/s. p value calculated by a two-sample t-test. […]
Cells were imaged with 60X objective with near-TIRF illumination to eliminate excessive fluorescence […]
every ten minutes, with stage position controlled by Velocity software. For quantification, a threshold was […]
the movie and integrated density of each neurite was measured over time. […]
to each well of the microfluidic chamber in imaging media (Hibernate E Low Fluorescence media) 45-60 […]

KLC1TPR = test: Fluorescence polarization competition assay with TAMRA-labeled WD1pept; assay type: binding; conditions: 300 nM TAMRA-DICWD1 and 25 µM KLC TPR (approx. 70% saturation), increasing unlabeled peptide, Figure S3D; typically in triplicate
Experimental: Measurements were performed as previously described ([Pernigo et al., 2013]) with modifications as listed in Supplemental Experimental Procedures. […]
Log unlabelled peptide [nM]
Figure S3. Related to Figure 3.
(A-C) Isoforms of the mouse cytoplasmic dynein intermediate chain, based on data from (Kuta et al., 2010). The splice forms of DIC1 (A) and DIC2 (B) from the genes Dync1i1 and Dync1i2 respectively, relative to the longest isoform of each with key structural elements indicated: coiled coil required for NudE and p150 binding (McKenney et al., 2011; Nyarko et al., 2012); binding sites of the dynein light chains Tctex (Mok et al., 2001), LC8 (Lo et al., 2001) and Roadblock (Susalka et al., 2002); WD repeats 1-7 of the WD40 domain. Sequence alignments of all DIC isoforms centred on the two alternatively spliced regions: AS Loop 1 and AS Loop 2 (C). […]
(D) In a fluorescence polarization competition assay, TAMRA-labeled WD1pept bound to KLC1TPR is competed off with both unlabeled SKIPWD (with a single tryptophan motif) or a longer peptide encompassing both motifs (SKIPWDWE). […]
Fluorescence polarization measurements […]
[…] All fluorescence polarization (FP) measurements were carried out on a BMG Labtech PolarStar Omega plate reader at 20 °C by incubating 300 nM TAMRA-labeled peptides with His6-tagged KLC2TPR at increasing concentrations in 25 mM Hepes pH 7.5, 150 mM NaCl, 5 mM β-mercaptoethanol. […]

[2] = 500 ng peptide with Chariot reagent, mean ± SEM
[3] = 500 ng peptide with Chariot reagent

Which results are given for COC(=O)Nc1nc2ccc(C(=O)c3cccs3)cc2[nH]1 [Nocodazole, nocodazole]?
net motility / anterograde bias ([1]; nocodazole, final concentration 30 μM, Figures 7A and 7B): abrogated the anterograde bias in transport seen in DMSO control neurons, with no net motility in either the anterograde or retrograde direction; mean velocity of dynein-GFP displacement ([1]; nocodazole, final concentration 30 μM, linear regression, mean ± SEM, n = 22 axons, DMSO control 0.018 ± 0.005 μm/s): –0.001 ± 0.005 μm/s

CC(=O)O[C@H]1C(=O)[C@@]2(C)[C@H]([C@H](OC(=O)c3ccccc3)[C@]3(O)C[C@H](OC(=O)[C@H](O)[C@@H](NC(=O)c4ccccc4)c4ccccc4)C(C)=C1C3(C)C)[C@]1(OC(C)=O)CO[C@@H]1C[C@@H]2O [Taxol, taxol] was tested. Which “mean velocity of dynein-GFP displacement” value ([1]; taxol 200 nM, 45-60 min pre-treatment, mean ± sem, n = 39 axons, DMSO 0.023±0.005 µm/s, p = 0.6 two-sample t-test) did it give?
Its value is 0.020±0.004 µm/s.

What about the “inhibition of anterograde bias of dynein transport” value ([1]; taxol 200 nM, Figures S5B–S5D) of the same molecule?
The value was “no inhibition in the anterograde bias of dynein transport”.

And the “density of EB3 comets in the axon” value (EB3 comets in the axon)?
Its value is 0.03 comets/µm/min.

What does the source list for LVQPLHFLTWDTCYFHYLV [DIC1a peptide]?
mean velocity of dynein-GFP ([1]; all kymographs, mean ± SEM): 0.012 ± 0.005 μm/s; anterograde bias of dynein-GFP transport ([1]; 500 ng peptide with Chariot reagent, Figure 7E): substantial reduction in the anterograde bias of dynein-GFP transport; reduction of mean dynein-GFP velocity versus control peptide ([1]; 500 ng peptide with Chariot reagent, all kymographs): over 50%; mean velocity of anterograde only kymographs [1, 2]: 0.029 ± 0.003 μm/s; kymographs with no or retrograde bias [1, 3]: 38%; kymographs showing anterograde velocities over 0.05 μm/s ([1]; 500 ng peptide with Chariot reagent, n = 29 axons): complete loss

With “STNLEWDDSAI [SKIPWD, unlabeled SKIP peptide with a single tryptophan motif]” as the molecule, how does the “competition of WD1pept” value (KLC1TPR) read?
Its value is “compete off WD1pept in a concentration dependent manner”.

With “STNLEWDDSAIAPSSEDYDFGDVFPAVPSTPR VPSTDWEDGDL [SKIPWDWE, longer SKIP peptide encompassing both motifs]” as the molecule, how does the “competition of WD1pept” value (KLC1TPR) read?
The value was “longer and higher affinity SKIPWDWE peptide doing so more efficiently”.

For VCFYLLLQTWVFPYTHDLH [control peptide], which “mean velocity of dynein-GFP” value ([1]; all kymographs, mean ± SEM) is on record?
Its value is 0.029 ± 0.005 μm/s.

And the “mean velocity of anterograde only kymographs” value [1, 2]?
The value was 0.036 ± 0.004 μm/s.

And the “kymographs with no or retrograde bias” value [1, 3]?
The value was 15%.

And the “kymographs with anterograde velocity over 0.05 μm/s” value ([1]; 500 ng peptide with Chariot reagent, n = 27 axons (control))?
Its value is 22%.
